This is an account of results in patent publication US9539218B2, “Prevention and treatment of thromboembolic disorders” (BAYER INTELLECTUAL PROPERTY GMBH, priority 2005, dated 2017).

Read-outs that look alike come from different tables or passages of the source.

For data set [1] the following is noted: at steady state in humans, healthy male subjects, multiple dose escalation; cited from earlier work.
The subject of data set [2] is patients undergoing elective primary total hip replacement. To be noted: for Primary efficacy, composite endpoint (DVT, PE, death) incidence rate / Primary efficacy, composite endpoint, n of patients with event: 7-9 days. On the procedure:
This was a dose guiding study for the direct factor Xa inhibitor (I). Objective of the study was the assessment of safety, tolerability, and efficacy of (I) at different oral doses (bid and od) compared with subcutaneously administered enoxaparin 40 mg in the prevention of venous thromboembolism.
642 patients were enrolled in this study and the treatment duration was 7 to 9 days.
The main inclusion criteria for the study were: men ≧18 years of age and postmenopausal women undergoing elective primary total hip replacement.
This was a prospective, randomized, open-label, active comparator controlled, multi-center and multi-national trial designed as a proof-of-principle dose-escalating study in patients undergoing elective primary total hip replacement.
(I) was administered orally as rapid release tablets.
The criteria for evaluation were: • a) The primary efficacy endpoint was a composite endpoint of • Any deep vein thrombosis (DVT) (proximal and/or distal). • Non-fatal pulmonary embolism (PE). • Death from all causes. • The primary endpoint was evaluated 5-9 days after surgery.

The mark [3] stands for this setting: (I) 2.5 mg bid oral, PP population N = 63.
[4] abbreviates: (I) 5 mg bid oral, PP population N = 63.
Setting [5] is: (I) 10 mg bid oral, PP population N = 55.
Where [6] appears, read: (I) 20 mg bid oral, PP population N = 59.
Setting [7] is: (I) 30 mg bid oral, PP population N = 46.
Where [8] appears, read: (I) 30 mg od oral, PP population N = 73.

Regarding `O=C(NC[C@H]1CN(c2ccc(N3CCOCC3=O)cc2)C(=O)O1)c1ccc(Cl)s1` [(I), 5-Chloro-N-({(5S)-2-oxo-3-[4-(3-oxo-4-morpholinyl)-phenyl]-1,3-oxazolidin-5-yl}-methyl)-2-thiophenecarboxamide], in data set [1], the “plasma concentration half life” value was 4 to 6 h. In data set [2] (30 mg (I) once daily for 7 to 9 days, 73 patients undergoing THR surgery), this molecule showed a DVT rate of 12.3%. In data set [2] (7-9-day treatment, 2.5 to 30 mg bid, adults undergoing elective hip replacement, compared with enoxaparin), the “Prevention of venous thromboembolism (VTE)” value is listed as “prevented venous thromboembolism (VTE)”. The “Primary efficacy, composite endpoint (DVT, PE, death) incidence rate” value came to 22.2% in data set [2] (setting [3]); 23.8% in data set [2] (setting [4]); 20.0% in data set [2] (setting [5]); 10.2% in data set [2] (setting [6]); 17.4% in data set [2] (setting [7]); 15.1% in data set [2] (setting [8]). Further, the “Primary efficacy, composite endpoint, n of patients with event” value in data set [2] (setting [3]) is listed as 14; in data set [2] (setting [4]), 15; in data set [2] (setting [5]), 11; in data set [2] (setting [6]) it was 6; in data set [2] (setting [7]), 8; in data set [2] (setting [8]), 11.
